From patent US20110281728A1, “METHOD FOR CONTROLLING COLORATION IN TABLE GRAPES BASED ON OLIGOGALACTURONIDES” (CENTRO DE INVESTIGACION EN ALIMENTACION Y DESARROLLO A.C., priority 2008, published 2011)
Marks after values point to notes of the source that are not given here.

Test system: red table grapes
Assay: Grape color in Color Index units for Red Grapes (CIRG) after application to grape plants
Format: in vivo, Vitis vinifera
Details: 500 ppm
Procedure: Control of coloration by means of OGAs determines a new use of these polymers which ensure a controlled ripening and effective coloring, which provide a high quality in table grapes. OGAs were obtained by enzymatic hydrolysis of polygalacturonic acid (PGA), stopping the reaction by heating to 100° C. for 30 minutes. Partial purification was performed by using an ultra-filtration equipment to recover OGAs in the range of 5-10 KDa. For the comparison of the degree of polymerization of 7-20 GP, these were compared with external standards. OGAs were frozen using liquid nitrogen in order to obtain a powdered mixture, which was applied to grape plants in a particular proportion. Six treatments were used: three using different concentrations of OGAs, methyl jasmonate (MeJa), Ethrel and a control (water).
To determine the best way to control the red color in grapes, a series of experiments was performed, wherein doses of the mixture, application times, application conditions, and periods of application were tested, finding that the results are obtained: when the mixture was applied in an amount of 0.25 L per plant during the morning at a temperature of 18-20° C. for a period of two days during the veraison period.

Row | Structure (SMILES) | grape color (CIRG) (1 day post-application) | grape color (CIRG) (5 days post-application) | grape color (CIRG) (10 days post-application) | grape color (CIRG) (15 days post-application) | grape color (CIRG) (20 days post-application)
1 | O=P(O)(O)CCCl [Ethrel, 2-chloroethyl phosphonic acid] | 1.17^a CIRG | 2.44^a CIRG | 2.96^a CIRG | 3.37^a CIRG | 3.76^a CIRG
2 | CC/C=C\CC1C(=O)CCC1CC(=O)OC (stereo not shown) [MeJa, methyl jasmonate] | 1.13^a CIRG | 2.20^a CIRG | 3.41^a CIRG | 3.20^a CIRG | 3.31^b CIRG
